Experimental data reported in PMC5493200 (ACS infectious diseases, 2016).
≈ marks a conversion by molar mass, not a printed value. Like-named read-outs stand apart in the source and are kept apart here.

Columns and labels:
[1] = tested on: M. tuberculosis H37Rv Rv1258c knockout (KO); assay: microbe, parasite or virus in culture; format: cell-based; conditions: for Rv1258c KO MIC: Tables 1-4 and text, 7 days, 7H9 broth
[2] = heteroaryl ring of side chain; ref not given; cited from earlier work
[3] = tested on: M. tuberculosis H37Rv; assay: microbe, parasite or virus in culture; format: cell-based, Mycobacterium tuberculosis; conditions: for H37Rv MIC: Tables 1-4 and text; for MIC (H37Rv): Table 5
[4] = target: Purified 70S M. smegmatis bacterial ribosomes (Mycolicibacterium smegmatis, UniProt A0QSG6); assay: Ribosomal translation inhibition; format: biochemical; conditions: inhibits luciferase activity by 50%
Chain of Purified 70S M. smegmatis bacterial ribosomes (A0QSG6 whole entry): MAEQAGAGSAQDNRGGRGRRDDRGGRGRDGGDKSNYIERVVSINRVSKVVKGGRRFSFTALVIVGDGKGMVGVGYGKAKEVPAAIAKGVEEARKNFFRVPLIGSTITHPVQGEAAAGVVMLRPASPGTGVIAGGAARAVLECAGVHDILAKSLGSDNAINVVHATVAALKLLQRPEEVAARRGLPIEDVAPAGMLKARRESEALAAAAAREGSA

[5] = tested on: Rv1258c efflux pump; conditions: H37Rv MIC / Rv1258c KO MIC
[6] = Maximum tolerated dose / tolerability; format: in vivo, mouse; conditions: mice; for Maximum tolerated dose (MTD): subcutaneous
[7] = Protein binding, human; format: in vitro ADME
[8] = tested on: HepG2 cells; assay: Mammalian cytotoxicity; format: cell-based
[9] = Microsomal stability, mouse; format: in vitro ADME; conditions: mouse liver microsomes
[10] = Protein binding, mouse; format: in vitro ADME
[11] = Microsomal stability, human; format: in vitro ADME; conditions: human liver microsomes
[12] = tested on: M. tuberculosis Erdman; assay: Mouse model of acute tuberculosis infection; format: in vivo; conditions: 9 days, vs control
[13] = tested on: M. bovis BCG; format: cell-based; conditions: average of 2–3 replicates, standard deviation in parenthesis
[14] = ref [18]; cited from earlier work
[15] = mouse liver microsomes; starred compounds; ref [4]; cited from earlier work
[16] = human liver microsomes; starred compounds; ref [4]; cited from earlier work
[17] = first new trial (Figure 3B), 200 mg/kg BID, subcutaneous
[18] = second new trial (Figure 3C), 200 mg/kg BID, subcutaneous

Compound: CN[C@@H]1[C@H](O)[C@H](NC)[C@H]2O[C@]3(O)[C@H](O[C@@H]2[C@H]1O)O[C@H](C)C[C@H]3NC(=O)Cc1ncc[nH]1.Cl.Cl.Cl [Compound 21, 3′-Dihydro-3′-deoxy-3′(R)-(1H-imidazol-2-yl)acetylamino spectinomycin trihydrochloride]
- Rv1258c KO MIC [1]: 6.3 µg/mL
- pKa [2]: 7.0
- H37Rv MIC [3]: 12.5 µg/mL
- Ribosome IC50 [4]: 0.56 µg/mL
- Efflux Ratio [5]: 2

Compound: Br.Br.Br.CNC1C(O)C(NC)C2OC3(O)C(NC(=O)Cc4nc5ccccc5s4)CC(C)OC3OC2C1O [Compound 25, 3′-Dihydro-3′-deoxy-3′(R)-(benzo[d]thiazol-2-yl)acetylamino spectinomycin trihydrobroride]
- Rv1258c KO MIC [1]: 0.8 µg/mL
- Maximum tolerated dose (MTD) [6]: mild toxicity noted when dosage exceeded 100 mg/kg
- H37Rv MIC [3]: 1.6 µg/mL
- Ribosome IC50 [4]: 1.09 µg/mL
- Efflux Ratio [5]: 2

Compound: Br.Br.Br.CN[C@@H]1[C@H](O)[C@H](NC)[C@H]2O[C@]3(O)[C@H](O[C@@H]2[C@H]1O)O[C@H](C)C[C@H]3NC(=O)Cc1nc2ccccc2[nH]1 [Compound 27, 3′-Dihydro-3′-deoxy-3′(R)-(1H-benzo[d]imidazol-2-yl)acetylamino spectinomycin trihydrobroride]
- Protein binding human [7]: 26.3%
- Cytotoxicity (HepG2) [8]: >400 µg/mL
- Microsomal stability t1/2 mouse [9]: >50 h
- Protein binding mouse [10]: 12.1%
- Rv1258c KO MIC [1]: 1.6 µg/mL
- pKa [2]: 5.6
- Microsomal stability t1/2 human [11]: >50 h
- MIC (H37Rv) [3]: 1.6 µg/mL
- H37Rv MIC [3]: 1.6 µg/mL
- Ribosome IC50 [4]: 0.26 µg/mL
- Efflux Ratio [5]: 1
- Reduction of bacterial load in lungs [12, 17]: 1.6 logs
- Post Antibiotic Effect [13]: 137 h

Compound: Br.Br.Br.CN[C@@H]1[C@H](O)[C@H](NC)[C@H]2O[C@]3(O)[C@H](O[C@@H]2[C@H]1O)O[C@H](C)C[C@H]3NC(=O)Cc1ccc(OC)cn1 [Compound 38, 3′-Dihydro-3′-deoxy-3′(R)-(5-methoxypyridin-2-yl)acetylamino spectinomycin trihydrobromide]
- Protein binding human [7]: 51.4%
- Cytotoxicity (HepG2) [8]: >400 µg/mL
- Microsomal stability t1/2 mouse [9]: 4.8 h
- Protein binding mouse [10]: 57.3%
- Rv1258c KO MIC [1]: 6.3 µg/mL
- Microsomal stability t1/2 human [11]: 3.4 h
- MIC (H37Rv) [3]: 3.1 µg/mL
- H37Rv MIC [3]: 3.1 µg/mL
- Ribosome IC50 [4]: 0.39 µg/mL
- Efflux Ratio [5]: 0.5
- Reduction of bacterial load in lungs [12, 18]: 1.6 log
- Post Antibiotic Effect [13]: 56 (12) h

Compound: CN[C@@H]1[C@H](O)[C@H](NC)[C@H]2O[C@]3(O)[C@H](O[C@@H]2[C@H]1O)O[C@H](C)C[C@H]3NC(=O)Cc1ccc(O)cn1.Cl.Cl.Cl [Compound 39, 3′-Dihydro-3′-deoxy-3′(R)-(5-hydroxypyridin-2-yl)acetylamino spectinomycin trihydrochloride]
- Protein binding human [7]: 35.1%
- Cytotoxicity (HepG2) [8]: >400 µg/mL
- Microsomal stability t1/2 mouse [9]: 13.4 h
- Protein binding mouse [10]: 30.7%
- Rv1258c KO MIC [1]: 3.1 µg/mL
- Maximum tolerated dose (MTD) [6]: > 400 mg/kg
- Microsomal stability t1/2 human [11]: 7.4 h
- MIC (H37Rv) [3]: 1.6 µg/mL
- H37Rv MIC [3]: 1.6 µg/mL
- Ribosome IC50 [4]: 0.84 µg/mL
- Efflux Ratio [5]: 0.5
- Reduction of bacterial load in lungs [12, 18]: 1.5 log
- Post Antibiotic Effect [13]: 20 (18) h

Compound: CN[C@@H]1[C@H](O)[C@H](NC)[C@H]2O[C@]3(O)[C@H](O[C@@H]2[C@H]1O)O[C@H](C)C[C@H]3NC(=O)Cc1ccc(OC(F)(F)F)cn1.Cl.Cl.Cl [Compound 41, 3′-Dihydro-3′-deoxy-3′(R)-(5-(trifluoromethoxy)pyridin-2-yl)acetylamino spectinomycin trihydrochloride]
- Protein binding human [7]: 51.4%
- Cytotoxicity (HepG2) [8]: >400 µg/mL
- Microsomal stability t1/2 mouse [9]: 27.0 h
- Protein binding mouse [10]: 58.4%
- Rv1258c KO MIC [1]: 0.8 µg/mL
- Well tolerated dosing ([6]; efficacy trial dosing (Table S3)): 100 mg/kg
- Microsomal stability t1/2 human [11]: 22.4 h
- MIC (H37Rv) [3]: 3.1 µg/mL
- H37Rv MIC [3]: 3.1 µg/mL
- Ribosome IC50 [4]: 0.96 µg/mL
- Efflux Ratio [5]: 4
- Reduction of bacterial load in lungs ([12]; second new trial (Figure 3C), 100 mg/kg): 1.1 log
- Post Antibiotic Effect [13]: 61 (17) h

Compound: Br.Br.Br.CN[C@@H]1[C@H](O)[C@H](NC)[C@H]2O[C@]3(O)[C@H](O[C@@H]2[C@H]1O)O[C@H](C)C[C@H]3NC(=O)Cc1cc(Cl)c(C)cn1 [Compound 47, 3′-Dihydro-3′-deoxy-3′(R)-(4-chloro-5-methylpyridin-2-yl)acetylamino spectinomycin trihydrobromide]
- Phase II conjugative metabolism [14]: subject to some phase II conjugative metabolism
- Protein binding human [7]: 43.9%
- Cytotoxicity (HepG2) [8]: >400 µg/mL
- Microsomal stability t1/2 mouse [9]: >50 h
- Protein binding mouse [10]: 42.7%
- Rv1258c KO MIC [1]: 0.8 µg/mL
- Microsomal stability t1/2 human [11]: >50 h
- MIC (H37Rv) [3]: 0.8 µg/mL
- H37Rv MIC [3]: 0.8 µg/mL
- Ribosome IC50 [4]: 0.23 µg/mL
- Reduction of bacterial load in lungs [12, 17]: more than 2 logs
- Post Antibiotic Effect [13]: 102 (15) h

Compound: Br.Br.Br.CN[C@@H]1[C@H](O)[C@H](NC)[C@H]2O[C@]3(O)[C@H](O[C@@H]2[C@H]1O)O[C@H](C)C[C@H]3NC(=O)Cc1cc(Cl)c(OC)cn1 [Compound 48, 3′-Dihydro-3′-deoxy-3′(R)-(4-chloro-5-methoxypyridin-2-yl)acetylamino spectinomycin trihydrobromide]
- Phase II conjugative metabolism [14]: subject to metabolism
- Protein binding human [7]: 61.6%
- Cytotoxicity (HepG2) [8]: >400 µg/mL
- Microsomal stability t1/2 mouse [9]: 5.5 h
- Protein binding mouse [10]: 72.9%
- Rv1258c KO MIC [1]: 3.1 µg/mL
- Microsomal stability t1/2 human [11]: 6.3 h
- MIC (H37Rv) [3]: 3.1 µg/mL
- H37Rv MIC [3]: 3.1 µg/mL
- Ribosome IC50 [4]: 0.42 µg/mL
- Reduction of bacterial load in lungs [12, 18]: 1.6 log
- Post Antibiotic Effect [13]: 72 (10) h

Compound: Br.Br.Br.CN[C@@H]1[C@H](O)[C@H](NC)[C@H]2O[C@]3(O)[C@H](O[C@@H]2[C@H]1O)O[C@H](C)C[C@H]3NC(=O)Cc1cc(Cl)c(F)cn1 [Compound 49, 3′-Dihydro-3′-deoxy-3′(R)-(4-chloro-5-fluoropyridin-2-yl)acetylamino spectinomycin trihydrobromide]
- Protein binding human [7]: 56.3%
- Cytotoxicity (HepG2) [8]: >400 µg/mL
- Microsomal stability t1/2 mouse [9]: >50 h
- Protein binding mouse [10]: 39.3%
- Rv1258c KO MIC [1]: 0.8 µg/mL
- Microsomal stability t1/2 human [11]: >50 h
- MIC (H37Rv) [3]: 0.8 µg/mL
- H37Rv MIC [3]: 0.8 µg/mL
- Ribosome IC50 [4]: 0.22 µg/mL
- Post Antibiotic Effect [13]: 116 (19) h

Compound: CN[C@@H]1[C@H](O)[C@H](NC)[C@H]2O[C@@]3(O)C(=O)C[C@@H](C)O[C@H]3O[C@@H]2[C@H]1O [SPC, Spectinomycin, reference compound]
- MIC ([1]; Mycobacterium tuberculosis, H37RV, 168 h, read-out: Rv1258c KO MIC): 6.3 µg/mL (≈ 19 µM)
- Microsomal stability t1/2 mouse [15]: >10 h
- MIC ([3]; Mycobacterium tuberculosis, H37RV, 168 h, read-out: H37Rv MIC): 100 µg/mL (≈ 301 µM)
- Microsomal stability t1/2 human [16]: 2.5 h
- Efflux Ratio [5]: 16
